Experimental data reported in patent US8404677B2, “Kinase inhibitors” (Genosco, priority 2009, dated 2013).

Key:
MDA-MB-468 = test: cells; type: cell-based; settings: MDA-MB-468 (Breast Cancer)
human PIM1 = molecular target: T1, human PIM1 (Homo sapiens, UniProt P11309); test: Inhibition of enzymatic kinase activity (LANCE Ulight); type: biochemical; settings: at 1 μM concentration; read-out: PIM1 percentage inhibition
T1 construct: Purified full-length human SYK, ZAP70, PIM1, PYK2; purchased Carna Biosciences
T1 sequence (P11309 whole entry): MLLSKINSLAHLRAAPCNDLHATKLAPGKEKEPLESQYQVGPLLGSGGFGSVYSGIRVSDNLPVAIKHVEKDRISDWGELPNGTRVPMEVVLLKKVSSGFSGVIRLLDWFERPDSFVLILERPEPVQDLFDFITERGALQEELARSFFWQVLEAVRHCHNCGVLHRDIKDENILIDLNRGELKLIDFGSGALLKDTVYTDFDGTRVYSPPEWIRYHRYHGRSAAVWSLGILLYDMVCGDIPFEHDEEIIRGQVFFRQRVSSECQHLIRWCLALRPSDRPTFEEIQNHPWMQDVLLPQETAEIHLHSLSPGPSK
Method: Inhibition of Enzymatic SYK, ZAP70, PYK2, FAK, PIM1, RET, FLT3, JAK2 and LRRK2 Kinase Activity
Compounds of the invention were initially diluted to 10 mM in 100% DMSO (CALBIOCHEM™) for storage and made into kinase buffer solution to create a compound concentration ranging from 1 uM and 10 uM. Serial dilutions of compounds of the invention were dispensed into a 96-well plate (GREINER BIOSCIENCES™) at 6 μL each. Purified full-length human SYK, ZAP70, PIM1, PYK2 and truncated human FAK, RET, FLT3, JAK2, and LRRK2 (CARNA BIOSCIENCES™) were diluted in kinase buffer and added to the compound solutions and pre-incubated for 30 minutes at room temperature (1 hour for PYK2). […] The reaction mixture was incubated for 1 hour (2 hours for PYK2). Following the incubation, the stop solution made with EDTA, water, and Lance detection buffer ([…]™) was added (12 μL each) to stop phosphorylation. […] Substrate phosphorylation was a function of the 665 nm emission measured following the addition of the detection solution and 50 minutes of incubation.

[1] = system: TNF-α release in THP-1 cells, LPS stimulation; test: SYK independent TNF-α release assay (LPS stimulation); type: cell-based, human
Method: For SYK independent TNF-α release assay (i.e., via lipopolysaccharide (LPS)-stimulation), THP-1 cells derived from human monocytic cells were obtained from the American Type Culture Collection (ATCC, Manassas, Va.). This cell line was maintained with an RPMI medium (GIBCO™) containing 10 fetal bovine serum (FBS, GIBCO™) and 0.05 mM 2-mercaptoethanol. The THP-1 cells were seeded at 1×10^5 cells/100 μL/well into 96-well culture plates, and treated with lipopolysaccharide (1 μg/ml), and serially diluted compound was then added. After an 18-hour incubation period at 37° C., supernatants were collected for the determination of the TNF-α level by ELISA, and the remaining cells were subjected to an MTT assay to determine the cytotoxic effects of compound.

NCI-H322M = test: cells; type: cell-based; settings: NCI-H322M (NSCLC)
HOP-62 = test: cells; type: cell-based; settings: HOP-62 (NSCLC)
HT29 = test: cells; type: cell-based; settings: HT29 (Colon Cancer)
KM12 = test: cells; type: cell-based; settings: KM12 (Colon Cancer)
SNB-19 = test: cells; type: cell-based; settings: SNB-19 (CNS Cancer)
SF-539 = test: cells; type: cell-based; settings: SF-539 (CNS Cancer)
SNB-75 = test: cells; type: cell-based; settings: SNB-75 (CNS Cancer)
HL-60(TB) = test: cells; type: cell-based; settings: HL-60(TB) (Leukemia)
PC-3 = test: cells; type: cell-based; settings: PC-3 (Prostate Cancer)
[2] = Homo sapiens, read-out: LC50 (the source's name)

O=c1[nH]ccc2nc(N3CCC(O)CC3)nc(Nc3cccc(C(F)(F)F)c3)c12 [Compound 6, 2-(4-hydroxypiperidin-1-yl)-4-(3-(trifluoromethyl)phenylamino)pyrido[4,3-d]pyrimidine-5(6H)-one]
GI50 (MDA-MB-468; Homo sapiens): 1.78 µM | IC50 (MDA-MB-468; Homo sapiens): 4.68 µM | CC50 (MDA-MB-468; [2]): 100 µM | TGI (MDA-MB-468): 7.08 µM | inhibition at 1 µM (human PIM1): 32% | inhibition at 0.3 µM ([1]; Homo sapiens, LPS stimulation, At 0.3 μM, THP-1, read-out: Inhibition of TNF-α Release (percentage inhibition)): 58% | inhibition at 1 µM ([1]; Homo sapiens, LPS stimulation, At 1 μM, THP-1, read-out: Inhibition of TNF-α Release (percentage inhibition)): 68.9% | percentage inhibition of TNF-α release compared with dexamethasone ([1]; LPS stimulated release): greater than or equal to those exhibited by dexamethasone | GI50 (NCI-H322M; Homo sapiens): 2.29 µM | IC50 (NCI-H322M; Homo sapiens): 21.4 µM | CC50 (NCI-H322M; [2]): 100 µM | TGI (NCI-H322M): 28.8 µM | TGI (HOP-62): 18.6 µM | GI50 (HOP-62; Homo sapiens): 4.37 µM | IC50 (HOP-62; Homo sapiens): 8.91 µM | CC50 (HOP-62; [2]): 79.4 µM | TGI (HT29): 95.5 µM | GI50 (HT29; Homo sapiens, HT-29): 3.89 µM | IC50 (HT29; Homo sapiens, HT-29): 7.08 µM | CC50 (HT29; Homo sapiens, HT-29, read-out: LC50 (the source's name)): 100 µM | GI50 (KM12; Homo sapiens): 1.45 µM | IC50 (KM12; Homo sapiens): 2.69 µM | CC50 (KM12; [2]): 24 µM | TGI (KM12): 5.37 µM | GI50 (SNB-19; Homo sapiens): 18.2 µM | IC50 (SNB-19; Homo sapiens): 64.6 µM | CC50 (SNB-19; [2]): 100 µM | TGI (SNB-19): 100 µM | GI50 (SF-539; Homo sapiens): 5.25 µM | IC50 (SF-539; Homo sapiens): 13.5 µM | CC50 (SF-539; [2]): 100 µM | TGI (SF-539): 38.9 µM | GI50 (SNB-75; Homo sapiens): 5.75 µM | IC50 (SNB-75; Homo sapiens): 77.6 µM | CC50 (SNB-75; [2]): 100 µM | TGI (SNB-75): 81.3 µM | TGI (HL-60(TB)): 5.01 µM | GI50 (HL-60(TB); Homo sapiens): 0.871 µM | IC50 (HL-60(TB); Homo sapiens): 1.86 µM | CC50 (HL-60(TB); [2]): 100 µM | GI50 (PC-3; Homo sapiens): 2.29 µM | IC50 (PC-3; Homo sapiens): 4.68 µM | CC50 (PC-3; [2]): 93.3 µM | TGI (PC-3): 12.9 µM
